Biological target: KRAS-G12V (Homo sapiens, UniProt P01116, G12V)
Test: DSF
Type: binding

C=C(C)[C@@H]1CC[C@]2(C)CC[C@]3(C)[C@H](CC[C@@H]4[C@@]5(C)CC[C@H](O)C(C)(C)[C@@H]5CC[C@]43C)[C@@H]12 [Lupeol, Lup-20(29)-en-3b-ol]
DSF (SYPRO Orange) with GDP-loaded protein; no Kd: (loaded with GDP) suggesting binding of Lupeol to both wt-KRAS and KRAS-^G12V protein

— paper PMC7334075 (Molecular carcinogenesis, 2020)
